Patent US20100056552A1, “COMBINATION FOR USE IN THE TREATMENT OF INFLAMMATORY DISORDERS” (priority 2007, published 2010)

How the values were obtained:
MonoMac-6 (MM6) cells = test: PMA-induced TNF release from MonoMac-6 macrophages (Human TNF ELISA); type: cell-based; conditions: n=2; for mean TNF concentration after PMA stimulation: 48 h treatment, then PMA 10 ng/mL 5 h, untreated cells 41.1 pg/mL
Protocol: (§1) Cells from the human macrophage cell-line MonoMac-6 (MM6) (Ziegler-Heitbrock et al, Int. J. Cancer, 41, 456 (1988)) were cultured (37° C./5% CO2) in RPMI-1640 medium supplemented with 1 mM sodium pyruvate, × nonessential amino acids, 10 μg/mL insulin, 1 mM oxalacetic acid, 100 units/mL penicillin, 100 μg/mL streptomycin and 5% (v/v) fetal bovine serum. At the start of the experiment, MM6 cells were seeded in 96-well plates at a density of 1×10^5 cells/mL (100 μL per well in cell the viability experiments, and 150 μL per well in the TNF release experiments—see below).
(§2) The MM6 cells were treated (incubation conditions as above) with indicated final concentrations of the test drugs for 48 hours prior to quantification of cell viability/growth or stimulation with phorbol-12-myristate-13-acetate (PMA; Sigma Aldrich, Stockholm, Sweden) followed by measurement of PMA-induced TNF-release (see below for details).
To stimulate formation and release of tumor necrosis factor (TNF), the MM6 cells were incubated (37° C./5% CO2) for five hours (in RPMI-1640 with 5% fetal bovine serum with supplements as above) with PMA at a final concentration of 10 ng/mL.
After spinning down the cells after the different MM6 incubations/stimulations (see above and below), the concentrations of TNF in the supernatants were quantitated using Human TNF ELISA Kit II from BD Biosciences—Pharmingen (San Diego, USA) according to instructions supplied by the manufacturer.
(§3) Stock solutions of suplatast (tosylate salt purchased from American Custom Chemicals Corporation, San Diego, USA) and rosuvastatin (sodium salt; rosuvastatin was extracted and purified from commercially available Crestor® tablets and isolated as sodium salt as described in Bioorganic & Medicinal Chemistry, Vol. 5, No. 5, pp 437-444, 1997) were made in sterile saline.

[1] = MM6 cell growth/viability (WST-1 reagent); type: cell-based; conditions: human, MonoMac-6 (MM6) macrophage cell line, n=3, read-out: viability of MM6 cells compared to untreated MM6 cells; for viability at 48 h, 10 μM: drug alone 10 μM
Protocol: as §1, §2
MM6 cell growth/viability was measured using the Cell Proliferation Reagent WST-1 (Roche Diagnostics Scandinavia AB, Bromma, Sweden). The WST-1 reagent is designed to be used for spectrophotometric quantification of e.g. cell growth and viability and. was used according to the manufacturers' instructions.
as §3

CC(C)c1c(C(=O)Nc2ccccc2)c(-c2ccccc2)c(-c2ccc(F)cc2)n1CC[C@@H](O)C[C@@H](O)CC(=O)O [atorvastatin]
mean TNF concentration after PMA stimulation (MonoMac-6 (MM6) cells; drug alone 10 μM): 133.6 pg/mL | mean TNF concentration after PMA stimulation (MonoMac-6 (MM6) cells; drug alone 30 μM): 59.7 pg/mL

CC(C)c1nc(N(C)S(C)(=O)=O)nc(-c2ccc(F)cc2)c1/C=C/[C@@H](O)C[C@@H](O)CC(=O)O [rosuvastatin]
viability at 48 h, 10 μM [1]: 105% | viability at 48 h, 30 μM ([1]; drug alone 30 μM): 102% | mean TNF concentration after PMA stimulation (MonoMac-6 (MM6) cells; drug alone 10 μM): 76.7 pg/mL | mean TNF concentration after PMA stimulation (MonoMac-6 (MM6) cells; drug alone 30 μM): 84.0 pg/mL

CCOCC(O)COc1ccc(NC(=O)CC[S+](C)C)cc1 (stereo not drawn) [suplatast]
viability at 48 h, 1 μM ([1]; drug alone 1 μM): 94% | viability at 48 h, 10 μM [1]: 92% | mean TNF concentration after PMA stimulation (MonoMac-6 (MM6) cells; drug alone 1 μM): 39.6 pg/mL | decrease in mean TNF concentration compared to the untreated cells (MonoMac-6 (MM6) cells; drug alone 1 μM): 3.8% | mean TNF concentration after PMA stimulation (MonoMac-6 (MM6) cells; drug alone 10 μM): 34.8 pg/mL | decrease in mean TNF concentration compared to the untreated cells (MonoMac-6 (MM6) cells; drug alone 10 μM): 15.4%
